Data on 15 molecules can be found in US7872026B2, “Ligand activators of the RAR receptors and pharmaceutical/cosmetic applications thereof” (Galderma Research & Development, priority 2003, dated 2011).

The target of one data set is T1, RAR beta (Homo sapiens, UniProt P10826).
T1 sequence (P10826 183-417 limits assumed): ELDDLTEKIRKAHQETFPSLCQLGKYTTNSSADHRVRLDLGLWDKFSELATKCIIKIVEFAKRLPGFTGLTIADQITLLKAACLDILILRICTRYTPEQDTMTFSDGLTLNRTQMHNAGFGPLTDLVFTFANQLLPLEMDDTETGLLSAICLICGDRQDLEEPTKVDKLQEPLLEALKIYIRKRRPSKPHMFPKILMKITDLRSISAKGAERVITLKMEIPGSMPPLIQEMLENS
Nature of the data set: Transactivation test (Kd apparent), RAR beta. It is filed as cell-based. Particulars: HeLa cells stably transfected with ERE-βGlob-Luc-SV-Neo reporter and RAR β ER-DBD-puro; luciferase; Schild regression vs reference antagonist; read-out: RAR beta Kd app. The method, then:
(§1) The compounds according to the invention have activating properties on RAR-type receptors. This RAR-receptor-activating activity is measured in a test of transactivation by means of the dissociation constant Kdapp (apparent).
(§2) The activation of receptors with an agonist (activator) in HeLa cells leads to the expression of a reporter gene, luciferase, which, in the presence of a substrate, generates light. The activation of the receptors may thus be measured by quantifying the luminescence produced after incubating the cells in the presence of a reference agonist. The activating products displace the agonist from its site, thus preventing activation of the receptor. The activity is measured by quantifying the decrease in light produced. This measurement makes it possible to determine the activating activity of the compounds according to the invention.
(§3) In this study, a constant is determined which represents the affinity of the molecule for the receptor. Since this value can fluctuate depending on the basal activity and the expression of the receptor, it is referred to as the Kd apparent (KdApp).
(§4) To determine this constant, the cells are brought into contact with a concentration of the test product and a concentration of the reference antagonist, 4-(5,5-dimethyl-8-p-tolyl-5,6-dihydro-2-naphthalen-2-ylethynyl)benzoic acid. Measurements are also taken for the total agonist (4-[2-(5,5,8,8-tetramethyl-5,6,7,8-tetrahydro-2-naphthyl)propenyl]benzoic acid) and inverse agonist, 4-{(E)-3-[4-(4-tert-butylphenyl)-5,5,8,8-tetramethyl-5,6,7,8-tetrahydro-2-naphthyl]-3-oxopropenyl}benzoic acid, controls.
(§5) These crossed curves make it possible to determine the AC50 values (concentration at which 50% activation is observed) for the reference ligand at various concentrations of test product. These AC50 values are used to calculate the Schild regression by plotting a straight line corresponding to the Schild equation (“Quantitation in Receptor Pharmacology” Terry P. Kenakin, Receptors and Channels, 2001, 7, 371-385).
(§6) In the case of an agonist, an AC50 value (concentration that gives 50% of the activity) is calculated by plotting the curve of the product at the concentration of the reference ligand that gives 80% activation.
(§7) The HeLa cell lines used are stable transfectants containing the plasmids ERE-βGlob-Luc-SV-Neo (reporter gene) and RAR (α, β, γ) ER-DBD-puro. These cells are inoculated into 96-well plates at a rate of 10,000 cells per well in 100 μl of DMEM medium without phenol red, and supplemented with 10% defatted calf serum. The plates are then incubated at 37° C. and 7% CO2 for 4 hours.
(§8) The various dilutions of the test products, of the reference ligand (4-(5,5-dimethyl-8-p-tolyl-5,6-dihydro-2-naphthalen-2-ylethynyl)benzoic acid), of the 100% control (100 nM 4-[2-(5,5,8,8-tetramethyl-5,6,7,8-tetrahydro-2-naphthyl)propenyl]benzoic acid) and of the 0% control (500 nM 4-{(E)-3-[4-(4-tert-butylphenyl)-5,5,8,8-tetramethyl-5,6,7,8-tetrahydro-2-naphthyl]-3-oxopropenyl}benzoic acid) are added at a rate of 5 μl per well. The plates are then incubated for 18 hours at 37° C. and 7% CO2.
(§9) The culture medium is removed by turning over and 100 μl of a 1:1 PBS/luciferin mixture is added to each well. After 5 minutes, the plates are read using the luminescence reader.

A further data set deals with T2, RAR gamma (Homo sapiens, UniProt P13631).
T2 sequence (P13631 185-454 limits assumed): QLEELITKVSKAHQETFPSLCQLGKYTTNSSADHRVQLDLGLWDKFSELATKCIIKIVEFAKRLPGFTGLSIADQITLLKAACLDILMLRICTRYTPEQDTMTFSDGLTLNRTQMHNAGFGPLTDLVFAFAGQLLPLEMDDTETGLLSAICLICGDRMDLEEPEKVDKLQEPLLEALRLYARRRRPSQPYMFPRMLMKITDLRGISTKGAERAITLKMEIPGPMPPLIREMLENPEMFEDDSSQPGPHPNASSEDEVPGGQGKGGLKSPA
Nature of the data set: Transactivation test (Kd apparent), RAR gamma. The class given is cell-based. Particulars: HeLa cells stably transfected with ERE-βGlob-Luc-SV-Neo reporter and RAR γ ER-DBD-puro; luciferase; Schild regression vs reference antagonist; read-out: RAR gamma Kd app. As for the experimental part:
as §1, §2, §3, §4, §5, §6, §7, §8, §9

Another data set deals with T3, RAR alpha (Homo sapiens, UniProt P10276).
T3 sequence (P10276 183-417 limits assumed): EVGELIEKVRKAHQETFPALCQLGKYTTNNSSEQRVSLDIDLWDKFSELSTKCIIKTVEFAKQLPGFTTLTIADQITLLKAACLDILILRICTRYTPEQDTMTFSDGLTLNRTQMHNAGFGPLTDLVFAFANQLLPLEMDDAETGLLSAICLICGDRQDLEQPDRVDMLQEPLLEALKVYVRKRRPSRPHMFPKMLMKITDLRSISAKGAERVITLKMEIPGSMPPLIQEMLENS
Nature of the data set: Transactivation test (Kd apparent), RAR alpha. Particulars: HeLa cells stably transfected with ERE-βGlob-Luc-SV-Neo reporter and RAR α ER-DBD-puro; luciferase; Schild regression vs reference antagonist; read-out: RAR alpha KD app. It is filed as cell-based. The method, then:
as §1, §2, §3, §4, §5, §6, §7, §8, §9

In general, melting point refers to the temperature of the solid-liquid transition. Regarding `CCCCNCCCOc1ccc(-c2ccc(C(=O)OCC)cc2)cc1-c1ccc2c(c1)C(C)(C)CCC2(C)C` [Compound 52, Ethyl 4′-(3-butylaminopropoxy)-3′-(5,5,8,8-tetramethyl-5,6,7,8-tetrahydronaphth-2-yl)biphenyl-4-carboxylate], the melting point came to 175 °C. For `CC1(C)CCC(C)(C)c2cc(-c3cc(-c4ccc(C(=O)O)cc4)ccc3OCCCCNC3CC3)ccc21` [Compound 59, 4′-(4-Cyclopropylaminobutoxy)-3′-(5,5,8,8-tetramethyl-5,6,7,8-tetrahydronaphth-2-yl)biphenyl-4-carboxylic acid], the Kd is 4 µM at RAR beta, 1 µM on RAR gamma and 8 µM on RAR alpha.

Turning to `CC1(C)CCC(C)(C)c2cc(-c3cc(-c4ccc(C(=O)O)cc4)ccc3OCCCCCNC3CC3)ccc21` [Compound 69, 4′-(5-Cyclopropylaminopentyloxy)-3′-(5,5,8,8-tetramethyl-5,6,7,8-tetrahydronaphth-2-yl)biphenyl-4-carboxylic acid], the Kd was determined as 0.5 µM on RAR beta, 0.25 µM at RAR gamma and 2 µM at RAR alpha. Regarding `CCOC(=O)c1ccc(-c2ccc(OCCCNC3CC3)c(-c3ccc4c(c3)C(C)(C)CCC4(C)C)c2)cc1` [Compound 50, Ethyl 4′-(3-cyclopropylaminopropoxy)-3′-(5,5,8,8-tetramethyl-5,6,7,8-tetrahydronaphth-2-yl)biphenyl-4-carboxylate], the melting point was determined as 141 °C.

`CNCCCOc1ccc(-c2ccc(C(=O)O)cc2)cc1-c1ccc2c(c1)C(C)(C)CCC2(C)C` [Compound 61, 4′-(3-Methylaminopropoxy)-3′-(5,5,8,8-tetramethyl-5,6,7,8-tetrahydronaphth-2-yl)biphenyl-4-carboxylic acid]: the Kd on RAR gamma turned out to be 0.03 µM.

For the molecule `CC1(C)CCC(C)(C)c2cc(-c3cc(-c4ccc(C(=O)O)cc4)ccc3OCCCN)ccc21` [Compound 65, 4′-(3-Aminopropoxy)-3′-(5,5,8,8-tetramethyl-5,6,7,8-tetrahydronaphth-2-yl)biphenyl-4-carboxylic acid], the Kd on RAR gamma was 0.008 µM. In the case of `CC1(C)CCC(C)(C)c2cc(-c3cc(-c4ccc(C(=O)O)cc4)ccc3OCCNC3CC3)ccc21` [Compound 67, 4′-(2-Cyclopropylaminoethoxy)-3′-(5,5,8,8-tetramethyl-5,6,7,8-tetrahydronaphth-2-yl)biphenyl-4-carboxylic acid], the Kd at RAR beta was found to be 0.06 µM; on RAR gamma, 0.004 µM; at RAR alpha, 1 µM. `CCNCCCOc1ccc(-c2ccc(C(=O)OCC)cc2)cc1-c1ccc2c(c1)C(C)(C)CCC2(C)C` [Compound 62, Ethyl 4′-(3-ethylaminopropoxy)-3′-(5,5,8,8-tetramethyl-5,6,7,8-tetrahydronaphth-2-yl)biphenyl-4-carboxylate]: the melting point came to 148 °C. In the case of `CC(C)NCCCCOc1ccc(-c2ccc(C(=O)O)cc2)cc1-c1ccc2c(c1)C(C)(C)CCC2(C)C` [Compound 1, 4′-(4-Isopropylaminobutoxy)-3′-(5,5,8,8-tetramethyl-5,6,7,8-tetrahydronaphth-2-yl)biphenyl-4-carboxylic acid], the Kd at RAR beta was found to be 0.5 µM; at RAR gamma it was 0.015 µM; on RAR alpha, 1 µM. `CCOC(=O)c1ccc(-c2ccc(OCCCNC)c(-c3ccc4c(c3)C(C)(C)CCC4(C)C)c2)cc1` [Compound 60, Ethyl 4′-(3-methylaminopropoxy)-3′-(5,5,8,8-tetramethyl-5,6,7,8-tetrahydronaphth-2-yl)biphenyl-4-carboxylate]: the melting point came out at 141 °C. Turning to `CC1(C)CCC(C)(C)c2cc(-c3cc(-c4ccc(C(=O)O)cc4)ccc3OCCCCCN)ccc21` [Compound 73, 4′-(5-Aminopentyloxy)-3′-(5,5,8,8-tetramethyl-5,6,7,8-tetrahydronaphth-2-yl)biphenyl-4-carboxylic acid], the figures for the Kd at RAR beta, on RAR gamma and at RAR alpha were 2 µM, 0.12 µM and 2 µM, respectively. As to `CCCNCCCOc1ccc(-c2ccc(C(=O)OCC)cc2)cc1-c1ccc2c(c1)C(C)(C)CCC2(C)C` [Compound 56, Ethyl 4′-(3-propylaminopropoxy)-3′-(5,5,8,8-tetramethyl-5,6,7,8-tetrahydronaphth-2-yl)biphenyl-4-carboxylate], the melting point came to 120 °C. `CC1(C)CCC(C)(C)c2cc(-c3cc(-c4ccc(C(=O)O)cc4)ccc3OCCCCN)ccc21` [Compound 75, 4′-(4-Aminobutoxy)-3′-(5,5,8,8-tetramethyl-5,6,7,8-tetrahydronaphth-2-yl)biphenyl-4-carboxylic acid]: the Kd turned out to be 2 µM at RAR beta, 0.06 µM at RAR gamma and 8 µM at RAR alpha. Regarding `CCNCCCOc1ccc(-c2ccc(C(=O)O)cc2)cc1-c1ccc2c(c1)C(C)(C)CCC2(C)C` [Compound 63, 4′-(3-Ethylaminopropoxy)-3′-(5,5,8,8-tetramethyl-5,6,7,8-tetrahydronaphth-2-yl)biphenyl-4-carboxylic acid], the Kd on RAR gamma came out at 0.25 µM. On to `CC(C)NCCOc1ccc(-c2ccc(C(=O)O)cc2)cc1-c1ccc2c(c1)C(C)(C)CCC2(C)C` [Compound 12, 4′-(2-Isopropylaminoethoxy)-3′-(5,5,8,8-tetramethyl-5,6,7,8-tetrahydronaphth-2-yl)biphenyl-4-carboxylic acid], for which the figures for the Kd at RAR beta and at RAR gamma were 4 µM and 0.12 µM, respectively.
